Experimental data from patent publication US11925612B2, “Bactericidal and virucidal pharmaceutical composition” (Quimica Luar SRL, priority 2015, dated 2024).

Test system: P. aeruginosa
Experiment: Bactericidal test: CFU count after incubation in PBS buffer
Type: cell-based, Pseudomonas aeruginosa
Conditions: for P. aeruginosa count (UFC/mL ± 10) As a function of treatment time: 37° C., Example 6; for Colony count (UFC/mL ± 10) Pseudomonas: Example 9; for Colony count (UFC/mL ± 10) P. aeruginosa: 4-hour at 37° C., control 3,000,000, Example 15

**Q.** With CC(C)Cc1ccc(C(C)C(=O)O)cc1.[Na] (stereo not drawn) [IBU-Na, SODIUM IBUPROFEN] as the compound, how does the “P. aeruginosa (UFC/mL ± 10)” value (IBU 10 mM, 4 h at 37° C., control 1,700,000, Example 4) read?
**A.** The value was 760,000 UFC/mL.

**Q.** And the “P. aeruginosa (UFC/mL ± 10)” value (IBU 20 mM y NaCl (1M), preincubated 1 hour with human Albumin 5 mg/mL, 4 hours at 37° C., control 1,000,000, Example 16)?
**A.** Its value is 1500 UFC/mL.

**Q.** What about the “P. aeruginosa (UFC/mL ± 10)” value (IBU 20 mM, 4 h at 37° C., control 1,700,000, Example 4) of the same compound?
**A.** Its value is 300,000 UFC/mL.

**Q.** What about the “P. aeruginosa (UFC/mL ± 10)” value (IBU 50 mM, 4 h at 37° C., control 1,700,000, Example 4) of the same compound?
**A.** Its value is 50 UFC/mL.

**Q.** And the “P. aeruginosa count (UFC/mL ± 10) As a function of treatment time” value (shortened to “P. aeruginosa count”) (IBU-Na 1 mM, 1 hour, control 2,000,000)?
**A.** Its value is 2,000,000 UFC/mL.

**Q.** What about the “P. aeruginosa count” value (IBU-Na 1 mM, 4 hours, control 2,000,000) of the same compound?
**A.** The value was 2,000,000 UFC/mL.

**Q.** What about the “P. aeruginosa count” value (IBU-Na 1 mM, Overnight (O.N.), control 2,000,000) of the same compound?
**A.** The value was 2,000,000 UFC/mL.

**Q.** What about the “P. aeruginosa (UFC/mL ± 10)” value (IBU-Na 1 mM, Population A (control 200,000), 4 h at 37° C., Example 5) of the same compound?
**A.** The value was 200,000 UFC/mL.

**Q.** What about the “P. aeruginosa (UFC/mL ± 10)” value (IBU-Na 1 mM, Population B (control 20,000), 4 h at 37° C., Example 5) of the same compound?
**A.** Its value is 20,000 UFC/mL.

**Q.** And the “P. aeruginosa (UFC/mL ± 10)” value (IBU-Na 1 mM, Population C (control 2,000), 4 h at 37° C., Example 5)?
**A.** The value was 2,000 UFC/mL.

**Q.** What about the “P. aeruginosa count” value (IBU-Na 2.5 mM, 1 hour, control 2,000,000) of the same compound?
**A.** The value was 2,000,000 UFC/mL.

**Q.** What about the “P. aeruginosa count” value (IBU-Na 2.5 mM, Overnight (O.N.), control 2,000,000) of the same compound?
**A.** The value was 2,000,000 UFC/mL.

**Q.** And the “P. aeruginosa (UFC/mL ± 10)” value (IBU-Na 5 mM + ClNa (1M), 1 hour, 37° C. pH 6.5, control 800,000, Example 13)?
**A.** The value was 16,000 UFC/mL.

**Q.** And the “P. aeruginosa (UFC/mL ± 10)” value (IBU-Na 5 mM + ClNa (1M), 2 hours, 37° C. pH 6.5, control 800,000, Example 13)?
**A.** The value was 13,000 UFC/mL.

**Q.** What about the “P. aeruginosa (UFC/mL ± 10)” value (IBU-Na 5 mM + ClNa (1M), 4 hours, 37° C. pH 6.5, control 800,000, Example 13) of the same compound?
**A.** The value was 8,500 UFC/mL.

**Q.** What about the “Colony count (UFC/mL ± 10) Pseudomonas” value (IBU-Na 5 mM, 4 hours at 37° C., control 1,700,000) of the same compound?
**A.** Its value is 1,700,000 UFC/mL.

**Q.** What about the “P. aeruginosa (UFC/mL ± 10)” value (IBU-Na 5 mM, Population A (control 200,000), 4 h at 37° C., Example 5) of the same compound?
**A.** Its value is 150,000 UFC/mL.

**Q.** And the “P. aeruginosa (UFC/mL ± 10)” value (IBU-Na 5 mM, Population B (control 20,000), 4 h at 37° C., Example 5)?
**A.** The value was 17,000 UFC/mL.

**Q.** What about the “P. aeruginosa (UFC/mL ± 10)” value (IBU-Na 10 mM + ClNa (1M), 1 hour, 37° C. pH 6.5, control 800,000, Example 13) of the same compound?
**A.** Its value is 30 UFC/mL.

**Q.** And the “P. aeruginosa (UFC/mL ± 10)” value (IBU-Na 10 mM + ClNa (1M), 2 hours, 37° C. pH 6.5, control 800,000, Example 13)?
**A.** The value was 30 UFC/mL.

**Q.** What about the “Colony count (UFC/mL ± 10) Pseudomonas” value (IBU-Na 10 mM, 4 hours at 37° C., control 1,700,000) of the same compound?
**A.** The value was 760,000 UFC/mL.

**Q.** And the “P. aeruginosa count” value (IBU-Na 10 mM, Overnight (O.N.), control 2,000,000)?
**A.** Its value is 900,000 UFC/mL.

**Q.** And the “P. aeruginosa (UFC/mL ± 10)” value (IBU-Na 10 mM, Population B (control 20,000), 4 h at 37° C., Example 5)?
**A.** Its value is 3,500 UFC/mL.

**Q.** And the “P. aeruginosa (UFC/mL ± 10)” value (IBU-Na 10 mM, Population C (control 2,000), 4 h at 37° C., Example 5)?
**A.** Its value is 800 UFC/mL.

**Q.** And the “P. aeruginosa (UFC/mL ± 10)” value (IBU-Na 10 mM, Without ionic strength, 4 hours at 37° C., control 1,700,000, Example 12)?
**A.** Its value is 760,000 UFC/mL.

**Q.** What about the “Colony count (UFC/mL ± 10) P. aeruginosa” value (IBU-Na 12.5 mM + ClNa (1M)) of the same compound?
**A.** The value was 250 UFC/mL.

**Q.** What about the “P. aeruginosa (UFC/mL ± 10)” value (IBU-Na 20 mM, Population A (control 200,000), 4 h at 37° C., Example 5) of the same compound?
**A.** The value was 20,000 UFC/mL.

**Q.** And the “P. aeruginosa (UFC/mL ± 10)” value (IBU-Na 20 mM, Population B (control 20,000), 4 h at 37° C., Example 5)?
**A.** The value was 400 UFC/mL.

**Q.** And the “P. aeruginosa (UFC/mL ± 10)” value (IBU-Na 20 mM, Population C (control 2,000), 4 h at 37° C., Example 5)?
**A.** Its value is 50 UFC/mL.

**Q.** What about the “Colony count (UFC/mL ± 10) P. aeruginosa” value (IBU-Na 25 mM + ClNa (1M)) of the same compound?
**A.** Its value is 10 UFC/mL.

**Q.** What about the “P. aeruginosa count” value (IBU-Na 25 mM, 1 hour, control 2,000,000) of the same compound?
**A.** Its value is 500,000 UFC/mL.

**Q.** What about the “Colony count (UFC/mL ± 10) Pseudomonas” value (IBU-Na 25 mM, 4 hours at 37° C., control 1,700,000) of the same compound?
**A.** The value was 200,000 UFC/mL.

**Q.** And the “P. aeruginosa count” value (IBU-Na 25 mM, 4 hours, control 2,000,000)?
**A.** The value was 250,000 UFC/mL.

**Q.** What about the “P. aeruginosa (UFC/mL ± 10)” value (IBU-Na 25 mM, Without ionic strength, 4 hours at 37° C., control 1,700,000, Example 12) of the same compound?
**A.** The value was 200,000 UFC/mL.

**Q.** What about the “P. aeruginosa (UFC/mL ± 10)” value (IBU-Na 30 mM, Population A (control 200,000), 4 h at 37° C., Example 5) of the same compound?
**A.** Its value is 500 UFC/mL.

**Q.** What about the “P. aeruginosa (UFC/mL ± 10)” value (IBU-Na 30 mM, Population B (control 20,000), 4 h at 37° C., Example 5) of the same compound?
**A.** Its value is 40 UFC/mL.

**Q.** What about the “P. aeruginosa (UFC/mL ± 10)” value (IBU-Na 40 mM, Population A (control 200,000), 4 h at 37° C., Example 5) of the same compound?
**A.** Its value is 100 UFC/mL.

**Q.** What about the “Colony count (UFC/mL ± 10) P. aeruginosa” value (IBU-Na 50 mM + ClNa (1M)) of the same compound?
**A.** The value was 10 UFC/mL.

**Q.** What about the “Colony count (UFC/mL ± 10)” value (IBU-Na 50 mM, 4-hour contact at 37° C., control 2,000,000, Example 8) of the same compound?
**A.** The value was 100 UFC/mL.
